Results taken from US20230183292A1, “IMMUNOMODULATORS” (priority 2020, published 2023).
Read-outs that look alike come from different tables or passages of the source. Starred links: 1 amine or outer side, 2 acyl side, 3 side chain; linkers in the order of their positions; H or OH if unused. Positions of bridges follow the written chain, without caps; N, C: chain ends. Non-standard residues stand in square brackets, D forms with d. Residues, ends and D or L forms follow the SMILES beside them. Groups on a side chain read outwards from the residue. *: point of attachment. X9 = C[C@H](CCC(=O)O)[C@H]1CC[C@H]2[C@@H]3C(O)C[C@@H]4CC(NCC[C@H](N[*:1])C(=O)[*:2])CC[C@]4(C)[C@H]3CC(=O)[C@]12C; X8 = C[C@H](CCC(=O)O)[C@H]1CC[C@H]2[C@@H]3C(O)C[C@@H]4CC(NC[C@H](N[*:1])C(=O)[*:2])CC[C@]4(C)[C@H]3CC(=O)[C@]12C; Ursodeoxycholyl = C[C@H](CCC(=O)*)[C@H]1CC[C@H]2[C@@H]3[C@@H](O)C[C@@H]4C[C@H](O)CC[C@]4(C)[C@H]3CC[C@]12C; Cholyl = C[C@H](CCC(=O)*)[C@H]1CC[C@H]2[C@@H]3[C@H](O)C[C@@H]4C[C@H](O)CC[C@]4(C)[C@H]3C[C@H](O)[C@]12C; X27 = O=C(Cn1cc(C[C@H](N[*:1])C(=O)[*:2])c2ccccc21)Oc1ccccc1; X30 = CCCCCCOC(=O)Cn1cc(C[C@H](N[*:1])C(=O)[*:2])c2ccccc21; X4 = O=C(Cn1cc(C[C@H](N[*:1])C(=O)[*:2])c2ccccc21)OCCOCCO; X34 = CCCCOC(=O)Cn1cc(C[C@H](N[*:1])C(=O)[*:2])c2ccccc21; Trp(1-CH2COOH) = N[C@@H](Cc1cn(CC(=O)O)c2ccccc12)C(=O)O; X37 = O=C(Cn1cc(C[C@H](N[*:1])C(=O)[*:2])c2ccccc21)OCCO; X1 = NCCNC(=O)Cn1cc(C[C@H](N[*:1])C(=O)[*:2])c2ccccc21; Pro(4R-Me) = C[C@H]1CN[C@H](C(=O)O)C1; Hyp = O=C(O)[C@@H]1C[C@@H](O)CN1; NMeNle = CCCC[C@H](NC)C(=O)O; NMeA = CN[C@@H](C)C(=O)O; Dab = NCC[C@H](N)C(=O)O; Dap = NC[C@H](N)C(=O)O

Target: T1, PD-1/PD-L1 (Homo sapiens, UniProt Q9NZQ7)
T1 construct: TVMV protease site (C); made in house; host or cells: HEK293T cells
T1 sequence (Q9NZQ7 18-239): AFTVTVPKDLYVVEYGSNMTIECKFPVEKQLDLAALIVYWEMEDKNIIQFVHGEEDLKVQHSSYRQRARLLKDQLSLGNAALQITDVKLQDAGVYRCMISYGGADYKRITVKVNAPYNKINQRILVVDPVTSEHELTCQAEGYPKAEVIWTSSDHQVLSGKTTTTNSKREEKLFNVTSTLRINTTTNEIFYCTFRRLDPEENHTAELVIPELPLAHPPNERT
Assay: PD-1/PD-L1 Homogenous Time-Resolved Fluorescence (HTRF) binding assay
Conditions: PD-1-Ig 20 nM
How it was run: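 Inhibitors pre-incubated 15 min with PD-L1-His (10 nM final) in dPBS, 0.1% BSA, 0.05% Tween-20, then 15 min with PD-1-Ig (20 nM final). Eu-cryptate anti-Ig (1 nM) and APC anti-His (20 nM) added, 30 min equilibration; HTRF 665/620 nm ratio. Human ECD proteins from HEK293T.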

[1] = PD-L1-His 10 nM, read-out: HTRF IC50

Work on CCCC[C@H]1C(=O)N(C)[C@@H](CCCC)C(=O)N[C@@H](CC(C)C)C(=O)N[C@H](C(=O)NCC(N)=O)CSCC(=O)N[C@@H](Cc2ccc(O)cc2)C(=O)N(C)[C@@H](C)C(=O)N[C@@H](CC(N)=O)C(=O)N2CCC[C@H]2C(=O)N[C@@H](CNC(=O)CC[C@@H](C)[C@H]2CC[C@H]3[C@@H]4[C@@H](O)C[C@@H]5C[C@H](O)CC[C@]5(C)[C@H]4CC[C@]23C)C(=O)N[C@@H](CC(C)C)C(=O)N2C[C@H](C)C[C@H]2C(=O)N[C@@H](Cc2c[nH]c3ccccc23)C(=O)N[C@@H](CCNC(=O)CC[C@@H](C)[C@H]2CC[C@H]3[C@@H]4[C@@H](O)C[C@@H]5C[C@H](O)CC[C@]5(C)[C@H]4CC[C@]23C)C(=O)N[C@@H](Cc2cn(CC(=O)NCCN)c3ccccc23)C(=O)N1C [Example 2032] ({CH2CO}-Y[NMeA]NP[Dap](Ursodeoxycholyl)L[Pro(4R-Me)]W[Dab](Ursodeoxycholyl)[X1][NMeNle][NMeNle]LCG-NH2; thioether N-14) yielded an IC50 [1] of 460 nM.
Work on CCCCOC(=O)Cn1cc(C[C@@H]2NC(=O)[C@H](CCNC(=O)CNC(=O)CC[C@@H](C)[C@H]3CC[C@H]4[C@@H]5[C@H](O)C[C@@H]6C[C@H](O)CC[C@]6(C)[C@H]5C[C@H](O)[C@]34C)NC(=O)[C@H](Cc3c[nH]c4ccccc34)NC(=O)[C@@H]3C[C@@H](C)CN3C(=O)[C@H](CC(C)C)NC(=O)[C@H](CNC(=O)CNC(=O)CC[C@@H](C)[C@H]3CC[C@H]4[C@@H]5[C@H](O)C[C@@H]6C[C@H](O)CC[C@]6(C)[C@H]5C[C@H](O)[C@]34C)NC(=O)[C@@H]3CCCN3C(=O)[C@H](CC(N)=O)NC(=O)[C@H](C)N(C)C(=O)[C@H](Cc3ccc(O)cc3)NC(=O)CSC[C@@H](C(=O)NCC(N)=O)NC(=O)[C@H](CC(C)C)NC(=O)[C@H](CCCC)N(C)C(=O)[C@H](CCCC)N(C)C2=O)c2ccccc21 [Example 2033] ({CH2CO}-Y[NMeA]NP[Dap]([Gly-Cholyl])L[Pro(4R-Me)]W[Dab]([Gly-Cholyl])[X34][NMeNle][NMeNle]LCG-NH2; thioether N-14) yielded an IC50 [1] of 4.2 nM.
For CCCCCCOC(=O)Cn1cc(C[C@@H]2NC(=O)[C@H](CCNC(=O)CNC(=O)CC[C@@H](C)[C@H]3CC[C@H]4[C@@H]5[C@H](O)C[C@@H]6C[C@H](O)CC[C@]6(C)[C@H]5C[C@H](O)[C@]34C)NC(=O)[C@H](Cc3c[nH]c4ccccc34)NC(=O)[C@@H]3C[C@@H](C)CN3C(=O)[C@H](CC(C)C)NC(=O)[C@H](CNC(=O)CNC(=O)CC[C@@H](C)[C@H]3CC[C@H]4[C@@H]5[C@H](O)C[C@@H]6C[C@H](O)CC[C@]6(C)[C@H]5C[C@H](O)[C@]34C)NC(=O)[C@@H]3CCCN3C(=O)[C@H](CC(N)=O)NC(=O)[C@H](C)N(C)C(=O)[C@H](Cc3ccc(O)cc3)NC(=O)CSC[C@@H](C(=O)NCC(N)=O)NC(=O)[C@H](CC(C)C)NC(=O)[C@H](CCCC)N(C)C(=O)[C@H](CCCC)N(C)C2=O)c2ccccc21 [Example 2034] ({CH2CO}-Y[NMeA]NP[Dap]([Gly-Cholyl])L[Pro(4R-Me)]W[Dab]([Gly-Cholyl])[X30][NMeNle][NMeNle]LCG-NH2; thioether N-14), the IC50 [1] was 5200 nM.
CCCC[C@H]1C(=O)N(C)[C@@H](CCCC)C(=O)N[C@@H](CC(C)C)C(=O)N[C@H](C(=O)NCC(N)=O)CSCC(=O)N[C@@H](Cc2ccc(O)cc2)C(=O)N(C)[C@@H](C)C(=O)N[C@@H](CC(N)=O)C(=O)N2CCC[C@H]2C(=O)N[C@@H](CNC(=O)CNC(=O)CC[C@@H](C)[C@H]2CC[C@H]3[C@@H]4[C@H](O)C[C@@H]5C[C@H](O)CC[C@]5(C)[C@H]4C[C@H](O)[C@]23C)C(=O)N[C@@H](CC(C)C)C(=O)N2C[C@H](C)C[C@H]2C(=O)N[C@@H](Cc2c[nH]c3ccccc23)C(=O)N[C@@H](CCNC(=O)CNC(=O)CC[C@@H](C)[C@H]2CC[C@H]3[C@@H]4[C@H](O)C[C@@H]5C[C@H](O)CC[C@]5(C)[C@H]4C[C@H](O)[C@]23C)C(=O)N[C@@H](Cc2cn(CC(=O)OCCO)c3ccccc23)C(=O)N1C [Example 2035] ({CH2CO}-Y[NMeA]NP[Dap]([Gly-Cholyl])L[Pro(4R-Me)]W[Dab]([Gly-Cholyl])[X37][NMeNle][NMeNle]LCG-NH2; thioether N-14) was tested, and the IC50 [1] was 830 nM.
Work on CCCC[C@H]1C(=O)N(C)[C@@H](CCCC)C(=O)N[C@@H](CC(C)C)C(=O)N[C@H](C(=O)NCC(N)=O)CSCC(=O)N[C@@H](Cc2ccc(O)cc2)C(=O)N(C)[C@@H](C)C(=O)N[C@@H](CC(N)=O)C(=O)N2CCC[C@H]2C(=O)N[C@@H](CNC(=O)CNC(=O)CC[C@@H](C)[C@H]2CC[C@H]3[C@@H]4[C@H](O)C[C@@H]5C[C@H](O)CC[C@]5(C)[C@H]4C[C@H](O)[C@]23C)C(=O)N[C@@H](CC(C)C)C(=O)N2C[C@H](C)C[C@H]2C(=O)N[C@@H](Cc2c[nH]c3ccccc23)C(=O)N[C@@H](CCNC(=O)CNC(=O)CC[C@@H](C)[C@H]2CC[C@H]3[C@@H]4[C@H](O)C[C@@H]5C[C@H](O)CC[C@]5(C)[C@H]4C[C@H](O)[C@]23C)C(=O)N[C@@H](Cc2cn(CC(=O)OCCOCCO)c3ccccc23)C(=O)N1C [Example 2036] ({CH2CO}-Y[NMeA]NP[Dap]([Gly-Cholyl])L[Pro(4R-Me)]W[Dab]([Gly-Cholyl])[X4][NMeNle][NMeNle]LCG-NH2; thioether N-14) yielded an IC50 [1] of 1000 nM.
CCCC[C@H]1C(=O)N(C)[C@@H](CCCC)C(=O)N[C@@H](CC(C)C)C(=O)N[C@H](C(=O)NCC(N)=O)CSCC(=O)N[C@@H](Cc2ccc(O)cc2)C(=O)N(C)[C@@H](C)C(=O)N[C@@H](CC(N)=O)C(=O)N2CCC[C@H]2C(=O)N[C@@H](CNC(=O)CNC(=O)CC[C@@H](C)[C@H]2CC[C@H]3[C@@H]4[C@H](O)C[C@@H]5C[C@H](O)CC[C@]5(C)[C@H]4C[C@H](O)[C@]23C)C(=O)N[C@@H](CC(C)C)C(=O)N2C[C@H](O)C[C@H]2C(=O)N[C@@H](Cc2c[nH]c3ccccc23)C(=O)N[C@@H](CCNC(=O)CNC(=O)CC[C@@H](C)[C@H]2CC[C@H]3[C@@H]4[C@H](O)C[C@@H]5C[C@H](O)CC[C@]5(C)[C@H]4C[C@H](O)[C@]23C)C(=O)N[C@@H](Cc2cn(CC(=O)Oc3ccccc3)c3ccccc23)C(=O)N1C [Example 2037] ({CH2CO}-Y[NMeA]NP[Dap]([Gly-Cholyl])L[Hyp]W[Dab]([Gly-Cholyl])[X27][NMeNle][NMeNle]LCG-NH2; thioether N-14) was tested, and the IC50 (HTRF IC50, PD-L1-His 10 nM) was 420 nM.
Work on CCCC[C@H]1C(=O)N(C)[C@@H](CCCC)C(=O)N[C@@H](CC(C)C)C(=O)N[C@H](C(=O)NCC(N)=O)CSCC(=O)N[C@@H](Cc2ccc(O)cc2)C(=O)N(C)[C@@H](C)C(=O)N[C@@H](CC(N)=O)C(=O)N2CCC[C@H]2C(=O)N[C@@H](CNC2CC[C@@]3(C)[C@@H](C2)CC(O)[C@@H]2[C@@H]3CC(=O)[C@]3(C)[C@@H]([C@H](C)CCC(=O)O)CC[C@@H]23)C(=O)N[C@@H](CC(C)C)C(=O)N2C[C@H](O)C[C@H]2C(=O)N[C@@H](Cc2c[nH]c3ccccc23)C(=O)N[C@@H](CCNC2CC[C@@]3(C)[C@@H](C2)CC(O)[C@@H]2[C@@H]3CC(=O)[C@]3(C)[C@@H]([C@H](C)CCC(=O)O)CC[C@@H]23)C(=O)N[C@@H](Cc2cn(CC(=O)O)c3ccccc23)C(=O)N1C (stereo partly shown) [Example 3001] ({CH2CO}-Y[NMeA]NP[X8]L[Hyp]W[X9][Trp(1-CH2COOH)][NMeNle][NMeNle]LCG-NH2; thioether N-14) yielded an IC50 [1] of 20 nM.
